From patent US8858952B2, “Methods and materials for generating T cells” (Mayo Foundation for Medical Education and Research, priority 2009, dated 2014)
Entries after “also recorded” stand apart in the source; their conditions may differ. Where no end group is shown, it is not given here. [ ]: non-standard residue; d: D form. Ava = NCCCCC(=O)O

How the values were obtained:
bone marrow-derived DC = assay: Cytokine and chemokine multiplex analysis of DC culture supernatant; format: cell-based; settings: DC culture media 48 hours after pulsing, versus native FR74
Protocol: FIG. 14. […] Shown are the concentrations of cytokines within DC culture media 48 hours after pulsing with the indicated polypeptides. Each bar is the mean (±s.e.m.) of duplicates samples. A repeat experiment yielded similar results.
FIG. 15. […] Shown are the concentrations of chemokines within DC culture media 48 hours after pulsing with the indicated polypeptides. Each bar is the mean (±s.e.m.) of duplicate samples. A repeat experiment yielded similar results.
FIG. 24. Modified polypeptides induce different release of IL-6 and IL-12p70. Shown are the concentrations of IL-6 and IL-12p70 within DC culture media 48 hours after pulsing with the indicated polypeptides. Each bar is the mean (±s.e.m.) of duplicate samples. A repeat experiment yielded similar results. Values associate with each bar are the actual mean concentrations measured.
Another potential reason for the enhanced T cell activation is that epitope nesting results in enhancement of cytokines that facilitate the induction of T cell activation. […]
This hypothesis is tested using antibody neutralization. […] Cytokine levels in the sera are quantitated by analyzing 100 μL of each well on a Bio-Plex using Bio-Plex Manager software (ver.4.). […] Both the DC and the T cells can be assessed for expression of the receptors using flow cytometry. […]

ovarian tumor = assay: Vaccination of ovarian tumor-bearing mice with native or nested epitope; format: in vivo; settings: spleens and lymph nodes, day 50; FIGS. 32, 33
Protocol: Each bar is the mean of three mice, each done in triplicate. P values, comparing FR74-specific responses, were calculated using Tukey-Kramer Multiple Comparisons test.
Each bar is the mean of 3 mice, each done in triplicate. P values, comparing FR74-specific responses or tumor weights, were calculated using Tukey-Kramer Multiple Comparisons test.
Mice were implanted with ovarian tumor and 10 days later were treated with PBS, native epitope FR74 (2150 μg/kg in 100 μL injected at the base of the tail), or nested epitope FR74.4 (5000 μg/kg in 100 μL injected at the base of the tail) over the course of a week. On day 50, the mice were sacrificed and spleen, lymph node, and tumor tissue was harvested. T cell responses and tumor weights were then estimated. The number of FR74-specific T cells in the spleens and lymph nodes was determined (FIG. 32). T cells were estimated using an IFN-γ ELIspot assay testing responses against native FR74 (black bars) or an irrelevant peptide (white bars). In addition, the proliferation of T cells, in response to native FR74 (black bars) or an irrelevant peptide (white bars), was measured in the spleens and lymph nodes (FIG. 33). T cell proliferation was estimated using a tritiated thymidine assay.
In addition, the weight of the greater omentum (a surrogate of total tumor burden) 50 days following last immunization was measured (FIG. 34C).

splenocytes = assay: Immunization with polypeptide-pulsed DC, splenocyte proliferation; format: in vivo, FVB/N mice; settings: DC pulsed 2 hours; splenocytes at 1 week; FIG. 30
Protocol: FIG. 30. DC pulsed with modified polypeptides are more immunogenic than FR74-pulsed DC. […] Control=DC pulsed with media.
Alternatively, the strategies developed herein can be applied to other fields of immunotherapy. […] In that experiment, bone-marrow derived DC were pulsed with either PBS, FR74 peptide, or FR74.4 peptide for 2 hours. The DC were washed and injected into FVB/N mice.

Substance: FR74.4: dual conjugated polypeptide: FR74 nested between Ii-key and DC3 (Ac-LRMK[Ava]KDISYLYRFNWNHCGRARRFYPSYHSTPQRP)
- cytokine release by DC (bone marrow-derived DC; FIG. 14): selectively induces expression of IL-1α, IL-6, IL-12p70, IL-13 and TNF-α; also recorded: enhanced the release of IL-1α, IL-6, and IL-12p70
- chemokine levels produced by DC (bone marrow-derived DC; FIG. 15): significantly higher levels of the T cell attracting chemokines, CCL7 (MCP-3), CCL1 (KC) CXCL10 (IP-10); also recorded: elevated levels of CCL7, CXCL1, and CXCL10
- immunogenicity as vaccine in tumor bearing mice (IFN-γ ELIspot and proliferation) (ovarian tumor): more immunogenic than native epitopes
- splenocyte proliferation in response to native FR74 antigen after DC immunization (splenocytes): significantly elevated proliferative response
